# Patent publication US20230107642A1 (Erasca, Inc., priority 2020, published 2023)
# Target: T1, Cys12 of the KRAS 4B G12C protein (Homo sapiens, UniProt P01116, G12C)
# T1 construct: This protein contained 188 amino acids in total, including an N-terminal 6-Histidine tag; made in house; host or cells: E. coli BL21
# Assay: In vitro covalent adduct formation (CAF) assay, LC-MS intact mass
# Format: binding
# Conditions: 10 uM compound, 60 min
# Summary of the method: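 GDP-loaded (>95%) His-TEV-tagged KRAS 4B G12C (residues 1–169), 5 μM in TBS pH 7.4, incubated with 10 μM compound (4% DMSO) at 22° C for one hour. Intact-protein LC-MS gave free:adduct ratios, reported as percent protein modified; duplicate runs.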
row,% CAF 10 uM @ 60 min [%],SMILES
1,93.3,"C=CC(=O)N1[C@H](C)CN(c2nc(=O)n3c4c(c(-c5cc(Cl)c(F)cc5F)c(C(F)(F)F)cc24)SCC2(COC2)C3)C[C@@H]1C (atropisomer, axis not shown) [Example 1361a, (R)-8′-((3S,5R)-4-acryloyl-3,5-dimethylpiperazin-1-yl)-11′-(5-chloro-2,4-difluorophenyl)-10′-(trifluoromethyl)-2′H,4′H,6′H-spiro[oxetane-3,3′-[1,4]thiazepino[2,3,4-ij]quinazolin]-6′-one]"
2,90,"C=CC(=O)N1CCN(c2nc(=O)n3c4c(c(-c5ccc(F)c(Cl)c5)c(C(F)(F)F)cc24)SC[C@@H]3COC)CC1 [Example 1345, (S)-7-(4-acryloylpiperazin-1-yl)-10-(3-chloro-4-fluorophenyl)-3-(methoxymethyl)-9-(trifluoromethyl)-2,3-dihydro-5H-[1,4]thiazino[2,3,4-ij]quinazolin-5-one]"

# Further lines, the molecule ahead of its results:
row,SMILES,% CAF 10 uM @ 60 min [%]
1,"[2H]C([2H])=C([2H])C(=O)N1[C@H](C)CN(c2nc(=O)n3c4c(c(-c5ccc(F)cc5F)c(C(F)(F)F)cc24)SC[C@@H]3COC)C[C@@H]1C (atropisomer, axis not shown) [Example 1405, (3S,10R)-7-((3S,5R)-4-(acryloyl-d3)-3,5-dimethylpiperazin-1-yl)-10-(2,4-difluorophenyl)-3-(methoxymethyl)-9-(trifluoromethyl)-2,3-dihydro-5H-[1,4]thiazino[2,3,4-ij]quinazolin-5-one]",88.6
2,"C=CC(=O)N1[C@H](C)CN(c2nc(=O)n3c4c(c(-c5cc(Cl)c(F)cc5F)c(C(F)(F)F)cc24)SC[C@@H]3CN2CCN(CC)CC2)C[C@@H]1C (atropisomer, axis not shown) [Example 1340, (3S,10S)-7-((3S,5R)-4-acryloyl-3,5-dimethylpiperazin-1-yl)-10-(5-chloro-2,4-difluorophenyl)-3-((4-ethylpiperazin-1-yl)methyl)-9-(trifluoromethyl)-2,3-dihydro-5H-[1,4]thiazino[2,3,4-ij]quinazolin-5-one]",89.4
3,"C=CC(=O)N1[C@H](C)CN(c2nc(=O)n3c4c(c(-c5cc(Cl)c(F)cc5F)c(C(F)(F)F)cc24)SC[C@@H]3CN2CCN(C3CC3)CC2)C[C@@H]1C (atropisomer, axis not shown) [Example 1348, (3S,10R)-7-((3S,5R)-4-acryloyl-3,5-dimethylpiperazin-1-yl)-10-(5-chloro-2,4-difluorophenyl)-3-((4-cyclopropylpiperazin-1-yl)methyl)-9-(trifluoromethyl)-2,3-dihydro-5H-[1,4]thiazino[2,3,4-ij]quinazolin-5-one]",94.4
4,"C=CC(=O)N1[C@H](C)CN(c2nc(=O)n3c4c(c(-c5nc(N)ccc5I)c(C(F)(F)F)cc24)SC[C@@H]3COC)C[C@@H]1C [Example 1449, (3S)-7-((3S,5R)-4-acryloyl-3,5-dimethylpiperazin-1-yl)-10-(6-amino-3-iodopyridin-2-yl)-3-(methoxymethyl)-9-(trifluoromethyl)-2,3-dihydro-5H-[1,4]thiazino[2,3,4-ij]quinazolin-5-one]",94
5,"C=CC(=O)N1C[C@H](C)N(c2nc(=O)n3c4c(c(-c5cc(Cl)c(F)cc5F)c(C(F)(F)F)cc24)SC[C@@H]3CN2CCN(C3CC3)CC2)C[C@H]1C [Example 1307, (3S)-7-((2S,5R)-4-acryloyl-2,5-dimethylpiperazin-1-yl)-10-(5-chloro-2,4-difluorophenyl)-3-((4-cyclopropylpiperazin-1-yl)methyl)-9-(trifluoromethyl)-2,3-dihydro-5H-[1,4]thiazino[2,3,4-ij]quinazolin-5-one]",69.7

# Same assay, conditions: 10 uM compound, 60 min incubation
row,% CAF 10 uM @ 60 min [%],SMILES
1,96.9,"C=CC(=O)N1[C@H](C)CN(c2nc(=O)n3c4c(c(-c5ccc(F)cc5)c(C(F)(F)F)cc24)SCC2(COC2)C3)C[C@@H]1C [Example 1117, 8′-((3S,5R)-4-acryloyl-3,5-dimethylpiperazin-1-yl)-11′-(4-fluorophenyl)-10′-(trifluoromethyl)-2′H,4′H,6′H-spiro[oxetane-3,3′-[1,4]thiazepino [2,3,4-ij]quinazolin]-6′-one]"
2,95.6,"C=CC(=O)N1[C@H](C)CN(c2nc(=O)n3c4c(c(-c5cc(Cl)c(F)cc5F)c(C(F)(F)F)cc24)SC[C@H](N2CCOCC2)C3)C[C@@H]1C [Example 1105, (3R)-8-((3S,5R)-4-acryloyl-3,5-dimethylpiperazin-1-yl)-11-(5-chloro-2,4-difluorophenyl)-3-morpholino-10-(trifluoromethyl)-3,4-dihydro-2H,6H-[1,4]thiazepino [2,3,4-ij]quinazolin-6-one]"
3,96.8,"C=CC(=O)N1[C@H](C)CN(c2nc(=O)n3c4c(c(-c5ccc(F)cc5F)c(Cl)cc24)SC[C@@H]3COC)C[C@@H]1C [Example 1113, (3S)-7-((3S,5R)-4-acryloyl-3,5-dimethylpiperazin-1-yl)-9-chloro-10-(2,4-difluorophenyl)-3-(methoxymethyl)-2,3-dihydro-5H-[1,4]thiazino[2,3,4-ij]quinazolin-5-one]"
4,46.8,"C=CC(=O)N1[C@H](C)CN(c2nc(=O)n3c4c(c(-c5ccc(F)c6cnn(C)c56)c(C(F)(F)F)cc24)SC[C@@H]3COC)C[C@@H]1C (atropisomer, axis not shown) [Example 1126, (3S,10S)-7-((3S,5R)-4-acryloyl-3,5-dimethylpiperazin-1-yl)-10-(4-fluoro-1-methyl-1H-indazol-7-yl)-3-(methoxymethyl)-9-(trifluoromethyl)-2,3-dihydro-5H-[1,4]thiazino [2,3,4-ij]quinazolin-5-one]"

# Same assay, conditions: 10 μM compound, after 1 hour
row,CAF (% after 1 hour) [%],SMILES
1,96,"C=CC(=O)N1[C@H](C)CN(c2nc(=O)n3c4c(c(-c5cc(C)c(F)cn5)c(C(F)(F)F)cc24)SC[C@@H](OC)C3)C[C@@H]1C [Example 1209, (S)-8-((3S,5R)-4-acryloyl-3,5-dimethylpiperazin-1-yl)-11-(5-fluoro-4-methylpyridin-2-yl)-3-methoxy-10-(trifluoromethyl)-3,4-dihydro-2H,6H-[1,4]thiazepino[2,3,4-ij]quinazolin-6-one]"
2,95,"C=CC(=O)N1[C@H](C)CN(c2nc(=O)n3c4c(c(-c5ccc(F)c(Cl)c5)c(C(F)(F)F)cc24)SC[C@@H](OCC)C3)C[C@@H]1C [Example 1204, (S)-8-((3S,5R)-4-acryloyl-3,5-dimethylpiperazin-1-yl)-11-(3-chloro-4-fluorophenyl)-3-ethoxy-10-(trifluoromethyl)-3,4-dihydro-2H,6H-[1,4]thiazepino[2,3,4-ij]quinazolin-6-one]"

# Same assay, conditions: after 60 min
row,CAF (% binding after 60 min) [%],SMILES
1,84,"C=CC(=O)N1[C@H](C)CN(c2nc(=O)n3c4c(c(-c5ccc(F)cc5F)c(C(F)(F)F)cc24)SC[C@H](N(C)C)C3)C[C@@H]1C [Example 1001, (3R)-8-((3S,5R)-4-acryloyl-3,5-dimethylpiperazin-1-yl)-11-(2,4-difluorophenyl)-3-(dimethylamino)-10-(trifluoromethyl)-3,4-dihydro-2H,6H-[1,4]thiazepino[2,3,4-ij]quinazolin-6-one]"
